Five molecules from patent US9499519B2, “Fused pyrimidine compounds and use thereof” (Medivation Technologies, Inc., priority 2012, dated 2016) can be followed below.

Experiment [1] concerns the target T1, IR (Homo sapiens, UniProt P06213).
T1 construct: purchased Millipore 14-803
The experiment can be described thus: In vitro IR enzymatic assay (ADP-Glo kinase assay). In kind it is biochemical. Conditions: activated IR, 30 nM; for % Inh @ 30 nM Avg: average. Here is the method:
(§1) IC50 values of the compounds of the invention against IGF-1R and IR were measured in vitro using an ADP-Glo kinase assay Kit (Promega). […] Kinase reactions in both assays were conducted at 30° C. for 20 min with increasing concentrations of compounds of the invention.
Additional compounds of the invention were screened against activated IR.
For orientation: ADP-Glo turns the ADP formed in a reaction into a luminescent signal.

Experiment [2] has as its system Akt phosphorylation induced by IGF-1R. The experiment is described as follows: Western blot analysis of Akt phosphorylation induced by IGF-1 in HT-29 cells. In kind it is cell-based, Human. Conditions: for Levels of phosphorylated AKT in treated cells (pAKT/actin): HT-29 cells, IGF-1; for p-AKT relative to levels with 0.1 nM compound: Table B2 lower part; for Normalized phosphorylated AKT (relative to actin) levels relative to 0.1 nM compound treatment: Table B2 upper part. The gist of the method:
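HT-29 cells grown 24 h in DME/F12 with 10% FBS, serum-starved 24 h, then exposed 2 h to compound at 0.1, 1, 10 or 100; controls received DMSO or 10 ng/mL IGF-1. Lysate soluble fractions quantified by BCA before western blotting for phospho-Akt.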

Experiment [3] deals with T2, IGF-1R (Homo sapiens, UniProt P08069).
T2 construct: purchased Millipore 14-802
The experiment can be described thus: In vitro IGF-1R enzymatic assay (ADP-Glo kinase assay). In kind it is biochemical. Conditions: activated IGF-1R, 30 nM; for % Inh @ 30 nM (N2) / % Inh @ 30 nM (N1): 0.03 µM; for % Inh @ 30 nM Avg: average. Here is the method: as §1
Additional compounds of the invention were screened against activated IGF-1R.

T1 sequence (P06213 28-1382): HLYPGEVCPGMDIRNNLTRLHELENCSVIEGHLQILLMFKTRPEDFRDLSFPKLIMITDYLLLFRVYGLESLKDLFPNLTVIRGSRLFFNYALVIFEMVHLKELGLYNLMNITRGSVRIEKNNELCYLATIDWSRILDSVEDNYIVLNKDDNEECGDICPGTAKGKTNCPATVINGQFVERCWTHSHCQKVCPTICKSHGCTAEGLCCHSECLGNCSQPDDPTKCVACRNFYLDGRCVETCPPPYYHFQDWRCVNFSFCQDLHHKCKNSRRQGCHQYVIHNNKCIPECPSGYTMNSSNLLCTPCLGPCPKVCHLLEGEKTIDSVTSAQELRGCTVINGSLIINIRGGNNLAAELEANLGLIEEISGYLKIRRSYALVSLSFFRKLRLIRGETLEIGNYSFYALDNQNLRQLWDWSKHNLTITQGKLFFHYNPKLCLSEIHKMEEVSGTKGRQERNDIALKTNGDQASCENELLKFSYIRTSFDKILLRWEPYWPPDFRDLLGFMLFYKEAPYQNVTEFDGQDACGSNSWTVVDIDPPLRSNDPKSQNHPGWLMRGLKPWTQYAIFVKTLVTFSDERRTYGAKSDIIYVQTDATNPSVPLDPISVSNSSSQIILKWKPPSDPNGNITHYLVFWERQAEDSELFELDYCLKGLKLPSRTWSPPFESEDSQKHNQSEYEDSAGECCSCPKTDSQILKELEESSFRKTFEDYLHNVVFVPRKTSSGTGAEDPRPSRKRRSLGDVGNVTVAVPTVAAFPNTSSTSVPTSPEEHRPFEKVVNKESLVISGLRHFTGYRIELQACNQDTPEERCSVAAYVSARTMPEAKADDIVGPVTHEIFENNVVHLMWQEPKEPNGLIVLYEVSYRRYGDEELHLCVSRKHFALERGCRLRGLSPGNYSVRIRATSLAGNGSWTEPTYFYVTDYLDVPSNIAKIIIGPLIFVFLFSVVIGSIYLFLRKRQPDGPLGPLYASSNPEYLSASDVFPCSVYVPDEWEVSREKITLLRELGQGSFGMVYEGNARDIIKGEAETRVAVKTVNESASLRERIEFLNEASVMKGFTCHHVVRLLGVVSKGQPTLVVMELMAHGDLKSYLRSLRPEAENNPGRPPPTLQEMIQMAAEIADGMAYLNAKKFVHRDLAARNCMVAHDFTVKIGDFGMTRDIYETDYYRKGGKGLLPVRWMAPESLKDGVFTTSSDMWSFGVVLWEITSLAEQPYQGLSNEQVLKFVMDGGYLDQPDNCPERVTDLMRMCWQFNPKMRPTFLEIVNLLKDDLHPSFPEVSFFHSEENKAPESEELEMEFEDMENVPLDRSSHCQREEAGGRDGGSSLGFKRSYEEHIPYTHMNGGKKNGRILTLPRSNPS
T2 sequence (P08069 31-1367): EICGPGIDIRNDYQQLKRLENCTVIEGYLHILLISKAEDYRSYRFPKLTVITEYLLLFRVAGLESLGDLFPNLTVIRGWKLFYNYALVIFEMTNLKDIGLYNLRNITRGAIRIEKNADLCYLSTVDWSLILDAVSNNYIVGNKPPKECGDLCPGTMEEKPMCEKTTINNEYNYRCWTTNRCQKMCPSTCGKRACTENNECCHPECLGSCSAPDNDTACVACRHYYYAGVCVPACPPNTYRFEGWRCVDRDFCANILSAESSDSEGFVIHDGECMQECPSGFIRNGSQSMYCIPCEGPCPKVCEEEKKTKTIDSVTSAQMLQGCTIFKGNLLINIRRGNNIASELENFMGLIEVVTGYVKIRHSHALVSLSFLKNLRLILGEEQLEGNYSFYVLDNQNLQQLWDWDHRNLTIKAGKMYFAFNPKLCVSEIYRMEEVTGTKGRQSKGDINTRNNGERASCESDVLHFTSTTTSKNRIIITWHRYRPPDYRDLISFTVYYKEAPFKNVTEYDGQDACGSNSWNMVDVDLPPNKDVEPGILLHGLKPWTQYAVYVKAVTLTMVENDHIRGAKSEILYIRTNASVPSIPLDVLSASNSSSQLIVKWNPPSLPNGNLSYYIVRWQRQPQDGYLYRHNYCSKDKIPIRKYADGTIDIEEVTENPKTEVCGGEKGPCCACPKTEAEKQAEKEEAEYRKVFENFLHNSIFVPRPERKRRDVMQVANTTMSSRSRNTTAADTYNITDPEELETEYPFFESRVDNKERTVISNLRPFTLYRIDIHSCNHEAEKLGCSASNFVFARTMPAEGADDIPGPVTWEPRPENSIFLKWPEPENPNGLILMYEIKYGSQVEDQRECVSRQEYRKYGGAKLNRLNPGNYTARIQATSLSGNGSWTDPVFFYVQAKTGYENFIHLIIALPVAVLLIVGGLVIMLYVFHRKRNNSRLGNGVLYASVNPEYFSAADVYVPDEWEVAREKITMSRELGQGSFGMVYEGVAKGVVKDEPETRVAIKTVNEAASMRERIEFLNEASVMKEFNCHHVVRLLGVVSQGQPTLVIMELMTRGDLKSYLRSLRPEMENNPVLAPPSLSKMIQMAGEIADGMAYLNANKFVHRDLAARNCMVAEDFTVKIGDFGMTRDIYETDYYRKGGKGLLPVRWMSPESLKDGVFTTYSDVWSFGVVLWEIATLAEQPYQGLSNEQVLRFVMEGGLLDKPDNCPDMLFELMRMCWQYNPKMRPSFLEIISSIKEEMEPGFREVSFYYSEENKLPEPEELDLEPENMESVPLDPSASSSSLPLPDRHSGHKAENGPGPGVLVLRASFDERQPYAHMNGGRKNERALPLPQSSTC

Turning to `CC(C)c1cc(Nc2nc(N3CCCCC3C(=O)Nc3ccc(F)nc3)nc3c2CCC3)n[nH]1` (single isomer, unassigned) [Compound 16a, N-(6-fluoropyridin-3-yl)-1-(4-(5-isopropyl-1H-pyrazol-3-ylamino)-6,7-dihydro-5H-cyclopenta[d]pyrimidin-2-yl)piperidine-2-carboxamide], the “% Inh @ 30 nM (N1)” value in experiment [1] (0.03 µM) worked out at 1%. The “% Inh @ 30 nM (N2)” value is −7% in experiment [1] (0.03 µM) and 15% in experiment [3]. Besides, the “% Inh @ 30 nM Avg” value in experiment [1] was −3%. The “Levels of phosphorylated AKT in treated cells (pAKT/actin)” value (from here on “Levels … (pAKT/actin)”) is 0.82 in experiment [2] (0.1 nM compound), 0.62 in experiment [2] (1 nM compound), 0.61 in experiment [2] (10 nM compound) and 0.30 in experiment [2] (100 nM compound). Moreover, the “p-AKT relative to levels with 0.1 nM compound” value (“p-AKT relative to levels” below) was 1.0 in experiment [2] (0.1 nM), 0.8 in experiment [2] (1 nM), 0.7 in experiment [2] (10 nM) and 0.4 in experiment [2] (100 nM). Moreover, the “Normalized phosphorylated AKT (relative to actin) levels relative to 0.1 nM compound treatment” value was determined as 1.0 in experiment [2] (0.1 nM), 0.8 in experiment [2] (1 nM), 0.7 in experiment [2] (10 nM) and 0.4 in experiment [2] (100 nM).

As to `O=C(Nc1ccc(F)nc1)C1CCCCN1c1nc2c(c(Nc3cc(C4CCCC4)[nH]n3)n1)CCC2` (single isomer, unassigned) [Compound 17b, 1-(4-(5-cyclopentyl-1H-pyrazol-3-ylamino)-6,7-dihydro-5H-cyclopenta[d]pyrimidin-2-yl)-N-(6-fluoropyridin-3-yl)piperidine-2-carboxamide], the figures for the “% Inh @ 30 nM (N1)” value in experiment [1] and in experiment [3] were 2% and 21%, respectively. Moreover, the figures for the “% Inh @ 30 nM (N2)” value in experiment [1] (0.03 µM) and in experiment [3] were 10% and 23%, respectively. Also, the figures for the “% Inh @ 30 nM Avg” value in experiment [1] and in experiment [3] were 6% and 22%, respectively. The “Levels … (pAKT/actin)” value is recorded as 0.83 in experiment [2] (0.1 nM compound), 0.99 in experiment [2] (1 nM compound), 0.95 in experiment [2] (10 nM compound) and 1.08 in experiment [2] (100 nM compound). Also, the “p-AKT relative to levels” value in experiment [2] (0.1 nM) was found to be 1.0; in experiment [2] (1 nM), 1.2; in experiment [2] (10 nM) it was 1.1; in experiment [2] (100 nM), 1.3. Besides, the “Normalized phosphorylated AKT (relative to actin) levels relative to 0.1 nM compound treatment” value in experiment [2] (0.1 nM) worked out at 1.0; in experiment [2] (1 nM) it was 1.2; in experiment [2] (10 nM) it was 1.1; in experiment [2] (100 nM), 1.3.

`O=C(Nc1ccc(F)nc1)C1CCCN1c1nc2c(c(Nc3cc(C4CCCC4)[nH]n3)n1)CCC2` (single isomer, unassigned) [Compound 4b, 1-(4-(3-cyclopentyl-1H-pyrazol-5-ylamino)-6,7-dihydro-5H-cyclopenta[d]pyrimidin-2-yl)-N-(6-fluoropyridin-3-yl)pyrrolidine-2-carboxamide]: the “% Inh @ 30 nM (N1)” value in experiment [1] (0.03 µM) is recorded as 41%; in experiment [3], 22%. The “% Inh @ 30 nM (N2)” value is on record as 33% in experiment [1] (0.03 µM) and 35% in experiment [3]. The “% Inh @ 30 nM Avg” value in experiment [1] was 37%; in experiment [3], 28%. Moreover, the “Levels … (pAKT/actin)” value in experiment [2] (0.1 nM compound) amounted to 1.81; in experiment [2] (1 nM compound), 1.92; in experiment [2] (10 nM compound), 1.64; in experiment [2] (100 nM compound) it was 0.20. Besides, the “p-AKT relative to levels” value in experiment [2] (0.1 nM) stood at 1.0; in experiment [2] (1 nM), 1.1; in experiment [2] (10 nM), 0.9; in experiment [2] (100 nM), 0.1. Also, the “Normalized phosphorylated AKT (relative to actin) levels relative to 0.1 nM compound treatment” value is 1.0 in experiment [2] (0.1 nM), 1.1 in experiment [2] (1 nM), 0.9 in experiment [2] (10 nM) and 0.1 in experiment [2] (100 nM).

Turning to `O=C(Nc1ccc(F)nc1)C1CCCN1c1nc2c(c(Nc3cc(C4CCCC4)[nH]n3)n1)CCC2` (single isomer, unassigned) [Compound 4a, 1-(4-(3-cyclopentyl-1H-pyrazol-5-ylamino)-6,7-dihydro-5H-cyclopenta[d]pyrimidin-2-yl)-N-(6-fluoropyridin-3-yl)pyrrolidine-2-carboxamide], the “% Inh @ 30 nM (N1)” value in experiment [1] (0.03 µM) is −14%; in experiment [3], 4%. Also, the figures for the “% Inh @ 30 nM (N2)” value in experiment [1] (0.03 µM) and in experiment [3] were −2% and 17%, respectively. The entries for the “% Inh @ 30 nM Avg” value in experiment [1] and in experiment [3] were −8% and 10%, respectively. In addition, the “Levels … (pAKT/actin)” value in experiment [2] (0.1 nM compound) came to 2.38; in experiment [2] (1 nM compound), 1.64; in experiment [2] (10 nM compound), 1.76; in experiment [2] (100 nM compound), 1.47. In addition, the “p-AKT relative to levels” value in experiment [2] (0.1 nM) was found to be 1.0; in experiment [2] (1 nM), 0.7; in experiment [2] (10 nM), 0.7; in experiment [2] (100 nM), 0.6. Besides, the “Normalized phosphorylated AKT (relative to actin) levels relative to 0.1 nM compound treatment” value was determined as 1.0 in experiment [2] (0.1 nM), 0.7 in experiment [2] (1 nM), 0.7 in experiment [2] (10 nM) and 0.6 in experiment [2] (100 nM).

Consider `O=C(Nc1ccc(F)nc1)C1CCCN1c1nc2c(c(Nc3cc(C4CCCC4)[nH]n3)n1)CCCC2` (single isomer, unassigned) [Compound 15b, 1-(4-(5-cyclopentyl-1H-pyrazol-3-ylamino)-5,6,7,8-tetrahydroquinazolin-2-yl)-N-(6-fluoropyridin-3-yl)pyrrolidine-2-carboxamide], for which the “% Inh @ 30 nM (N1)” value in experiment [1] (0.03 µM) came out at 28%; in experiment [3], 32%. In addition, the “% Inh @ 30 nM (N2)” value was 31% in experiment [1] (0.03 µM) and 28% in experiment [3]. Further, the “% Inh @ 30 nM Avg” value in experiment [1] and in experiment [3] was 30% each time. In addition, the “Levels … (pAKT/actin)” value is given as 0.52 in experiment [2] (0.1 nM compound), 0.58 in experiment [2] (1 nM compound), 0.43 in experiment [2] (10 nM compound) and 0.13 in experiment [2] (100 nM compound). Further, the “p-AKT relative to levels” value in experiment [2] (0.1 nM) is listed as 1.0; in experiment [2] (1 nM), 1.1; in experiment [2] (10 nM) it was 0.8; in experiment [2] (100 nM), 0.3. Also, the “Normalized phosphorylated AKT (relative to actin) levels relative to 0.1 nM compound treatment” value in experiment [2] (0.1 nM) turned out to be 1.0; in experiment [2] (1 nM), 1.1; in experiment [2] (10 nM), 0.8; in experiment [2] (100 nM), 0.3.
